Source: article PMC7598702, “Phenolome of Asian Agrimony Tea (Agrimonia asiatica Juz., Rosaceae): LC-MS Profile, α-Glucosidase Inhibitory Potential and Stability” (Foods, 2020)

Tests used:
α-glucosidase [1] = assay: HPLC activity-based profiling (microfractionation) of A. asiatica extract for α-glucosidase inhibition; type: biochemical, Saccharomyces cerevisiae; settings: microfractions of A. asiatica extract, main inhibition window 11.5 to 13.5 min
Experimental: Aliquots (100 µL) of A. asiatica extract solution (10 mg/mL) were separated under analytical HPLC conditions as described in Section 2.4. The collection of eluates (40 µL) performed every 30 s in 96-well plates. After drying and redissolving the eluates in 10 µL of PBS the eluates were investigated as described earlier. α-Glucosidase was dissolved in PBS which contained BSA (0.2%) up to 0.5 U/mL concentration and then added 125 µL of PBS and 60 µL p-nitrophenyl-α-D-glucopyranoside (5 mM). The samples were incubated at 37 °C for 5 min and then 60 µL α-glucosidase (0.4 U/mL) was added. The samples were incubated at 37 °C for 15 min. Then 50 µL sodium carbonate (200 mM) was added. Absorbance (A400) was determined at 400 nm. The rates (1-A400) were carried out to create HPLC-based bioactivity profiles of A. asiatica extract.
To characterize the chemical profile of A. asiatica herb extract microcolumn reversed-phase HPLC-PDA procedure was applied (Figure 3a). […] For identification, the components of interest of A. asiatica herb with high α-glucosidase inhibitory activity, the extract was subjected by HPLC activity-based profiling. To detect of anti-α-glucosidase inhibitors in A. asiatica herb extract, the procedure of small-scale semi-preparative microfractionation by reversed-phase HPLC was applied. […] Subsequently, microfractions were dried and redissolved in a buffer solution. Thereafter, an enzyme solution was added to estimate the inhibition of α-glucosidase by the eluate.

α-glucosidase [2] = test system: α-glucosidase; design: method as in PMID 28045450; settings: agrimoniin from Comarum palustre herb extract; cited from earlier work
[3] = Stability of A. asiatica phenolics in water media (infusions and decoctions, HPLC-MS quantification); type: physicochemical; settings: boiling infusion (100 °C) and decoctions
Experimental: Quantification of compounds 1–60 were carried out using HPLC-MS data (full scan MS, peak area). The quantifications were realized under the conditions specified in Section 2.4. For the preparation of the stock solutions, 44 reference compounds (2, 6–16, 19, 23, 26, 28, 31–51, 53–56, 58–60) were carefully weighed (10 mg), then separately dissolved in methanol in a W flask (10 mL). An external standard calibration curve was constructed with the use of six data points (100, 50, 25, 10, 5, and 1 µg/mL). The calibration curves were constructed by plotting the MS peak area vs. concentration levels. Correlation coefficients, r^2; standard deviation, SYX; limits of detection, LOD; limits of quantification, LOQ; linear ranges were computed applying early reference. All analyses were performed in triplicate, data obtained were expressed as mean value ± standard deviation (SD). […] The weight of the tube was reduced to an initial sign after cooling. For analysis, the extract obtained was filtered through 0.22 μm polytetrafluoroethylene (PTFE) syringe filter and then injected into the HPLC system. […]

SMILES | content change on heat treatment in water [3] | α-glucosidase inhibition of HPLC peaks (α-glucosidase [1]) | further results
O=C(O[C@H]1O[C@@H]2COC(=O)c3cc(O)c(O)c(O)c3-c3c(cc(O)c(O)c3O)C(=O)O[C@H]2[C@@H]2OC(=O)c3cc(O)c(O)c(O)c3-c3c(cc(O)c(O)c3O)C(=O)O[C@@H]12)c1cc(O)c(O)c(Oc2c(C(=O)O[C@H]3O[C@@H]4COC(=O)c5cc(O)c(O)c(O)c5-c5c(cc(O)c(O)c5O)C(=O)O[C@H]4[C@@H]4OC(=O)c5cc(O)c(O)c(O)c5-c5c(cc(O)c(O)c5O)C(=O)O[C@@H]34)cc(O)c(O)c2O)c1 [Compound 36, Agrimoniin] | – | most pronounced inhibition | inhibitory activity relative to α-glucosidase (α-glucosidase [2]): high inhibitory activity
O=c1c(O[C@@H]2O[C@H](CO)[C@@H](O)[C@H](O)[C@H]2O)c(-c2ccc(O)c(O)c2)oc2cc(O)cc(O)c12 [Compound 41, Quercetin-3-O-glucoside] | – | – | α-glucosidase inhibition of HPLC peaks (α-glucosidase [1]; listed as isoquercitrin): less significant results of inhibition
O=c1oc2c(O)c(O)cc3c(=O)oc4c(O)c(O)cc1c4c23 [Compound 38, Ellagic acid] | – | less significant results of inhibition | –

Further lines, with some results ahead:

content change on heat treatment in water [3] | SMILES | α-glucosidase inhibition of HPLC peaks (α-glucosidase [1]) | further results
decreased to trace amounts | O=C(O)CC(=O)OC[C@H]1O[C@@H](Oc2c(-c3ccc(O)c(O)c3)oc3cc(O)cc(O)c3c2=O)[C@H](O)[C@@H](O)[C@@H]1O [Compound 45, Quercetin-3-O-(6″-O-malonyl)-glucoside] | – | –
decreased to trace amounts | O=C(O)CC(=O)OCC1OC(Oc2cc(-c3cc(=O)c4c(O)cc(O)cc4o3)ccc2O)C(O)C(O)C1O (stereo not drawn) [Compound 53, Luteolin-3-O-(6″-O-malonyl)-glucoside] | – | –
